Article PMC9821843, “Powerful Potential of Polyfluoroalkyl-Containing 4-Arylhydrazinylidenepyrazol-3-ones for Pharmaceuticals” (Molecules, 2022)
≈ marks a conversion by molar mass, not a printed value. Where two headings read alike, the source gives them in different places.

Experiments:
[1] = Acute toxicity evaluation in mice (ip); settings: CD-1, mouse, in vivo, 300 mg/kg
Protocol: The toxicity evaluation was performed on CD-1 mice. […] The tested compounds in 1% starch mucilage were injected intraperitoneally into three mice. Then, animals were observed during 14 days, the number of deaths was counted and % of viability calculated.

[2] = target: T1, human erythrocyte acetylcholinesterase (AChE, EC 3.1.1.7) (Homo sapiens, UniProt P22303); experiment: Inhibition of human erythrocyte acetylcholinesterase (Ellman assay); format: biochemical; settings: read-out: Inhibition % at 20 µM, Human AChE
T1 construct: human erythrocyte acetylcholinesterase (AChE, EC 3.1.1.7); purchased Sigma-Aldrich (Saint Louis, MO, USA); host or cells: human erythrocytes
Source text: (§1) The following enzymes were purchased from Sigma-Aldrich (Saint Louis, MO, USA): porcine liver carboxylesterase (CES, EC 3.1.1.1), human erythrocyte acetylcholinesterase (AChE, EC 3.1.1.7) and equine serum butyrylcholinesterase (BChE, EC 3.1.1.8). Substrates for CES, AChE and BChE were 4-nitrophenyl acetate (4-NPA), acetylthiocholine iodide (ATCh) and butyrylthiocholine iodide (BTCh), respectively, and the colorimetric reagent for the AChE and BChE assays was 5,5’-dithio-bis-(2-nitrobenzoic acid) (DTNB) (Sigma-Aldrich). All the kinetic experiments were performed under standard conditions, according to the protocol of IPAC RAS for a reversible inhibitors study.
Reagent blanks consisted of reaction mixtures without enzyme to assess non-enzymatic hydrolysis of substrates.
Test compounds were dissolved in DMSO. Reaction mixtures contained a final DMSO concentration of 2% (v/v). […] Measurements were performed in a Bio-Rad Benchmark Plus microplate reader. Each experiment was performed in triplicate. Plots, linear regressions and values of IC50, were determined using Origin 6.1 for Windows, OriginLab (Northampton, MA, USA).

[3] = tested on: Neisseria gonorrhoeae ATCC 49226/NCTC 12700; experiment: Antibacterial activity against Neisseria gonorrhoeae; format: cell-based; settings: read-out: MIC against Neisseria gonorrhoeae
Protocol: Antibacterial activity testing was done on the growth medium Difco GC medium base (Becton Dickinson, Franklin Lakes, NJ, USA) supplemented with 1% IsoVitaleX. Dilutions of chemical compounds were carried out in the range of 250–0.12 μg/mL in 24 well sterile plates (Sarstedt, Germany). Daily cultures of control bacterial strains were identified on a VITEK MS analyzer (BioMérieux, Marcy-l’Étoile, France) by MALDI-TOF mass spectrometry. The inoculation dose of N. gonorrhoeae inoculum was 10^5 CFU/mL.

[4] = ABTS radical cation scavenging activity assay; parameters: key to ABTS•+-scavenging activity, TEAC (trolox equivalent antioxidant capacity): TEAC = ratio of compound slope to Trolox slope vs ABTS absorbance; settings: mean ± SEM; for ABTS•+-scavenging activity, TEAC (trolox equivalent antioxidant capacity): n.a. = inactive
Protocol: Radical scavenging activity of the compounds was evaluated by the ABTS radical cation (ABTS^•+) scavenging assay by the ability of the compounds to decolorize the ABTS^•+ solution [112] with some modifications. Trolox was used as a reference standard. Edaravone was used as the comparison compound. All tested compounds and standards were dissolved in DMSO. ABTS (2,2′-azinobis-(3-ethylbenzothiazoline-6-sulfonic acid)) was purchased from Tokyo Chemical Industry Co. Ltd. (Tokyo, Japan). Potassium persulfate (di-potassium peroxdisulfate), Trolox® (6-hydroxy-2,5,7,8-tetramethychroman-2-carboxylic acid), ascorbic acid, DMSO and HPLC-grade ethanol were obtained from Sigma-Aldrich Chemical Co. Aqueous solutions were prepared using deionized water.
The solution of ABTS^•+ was produced by mixing 7 mM ABTS aqueous solution with 2.45 mM potassium persulfate aqueous solution in equal quantities and allowing them to react for 12–16 h at room temperature in the dark. Radical scavenging capacity of the compounds was analyzed by mixing 10 μL of compound with 240 μL of ABTS^•+ working solution in ethanol (100 μM final concentration), and after 1 h of incubation at 30 °C the decrease in absorbance was measured spectrophotometrically at 734 nm using a Bio-Rad xMark microplate UV/VIS spectrophotometer (Bio-Rad, Hercules, CA, USA). The compounds were tested in the concentration range of 5 × 10^–7–4 × 10^–4 M. Ethanol blanks were run in each assay. Values were obtained from five replicates of each sample and three independent experiments.
Antioxidant activity was calculated as Trolox equivalent antioxidant capacity (TEAC values), consisting of the ratio between the slopes obtained from the linear correlation for concentrations of the tested compounds and Trolox with absorbance of ABTS radical. For the test compounds, which reduce ABTS^•+ absorbance by more than 60% at 100 µM, we also determined IC50 values as 50% reduction of the ABTS radical. The calculations were carried out using Origin 6.1 for Windows. Results were presented as mean ± SEM, calculated using GraphPad Prism version 6.05 for Windows, GraphPad Software.

Sprague-Dawley (SD) rats = experiment: Hot plate test (analgesic activity); format: in vivo; settings: ip, dose 15 mg/kg; for change in vivo at 15 mg/kg: Rattus norvegicus, hot plate test, rats, n.a. = inactive (p > 0.05)
Protocol: The hot plate test was conducted according to established guidelines on Sprague-Dawley (SD) rats (3 male and 3 female rodents per group). The compounds were intraperitoneally administered in the form of suspensions in 1% starch mucilage. Negative control group animals received vehicle only (1% starch mucilage). Diclofenac sodium (Hemofarm, Vršac, Serbia, 10 mg/kg in 1% starch mucilage solution) or metamizole sodium (PAO Biosynthesis, Sun Pharma, Penza, Russia, 15 mg/kg in 1% starch mucilage solution) were used as reference drugs. One and two hours after the injection, rats were placed on an electrically heated to 50 °C plate (Hot plate 60,200 series, TSE-systems, Bad Homburg, Germany) in a Plexiglas cylindrical restrainer (19 cm diameter × 30 cm). The nociceptive response time was measured by observing the appearance of rats’ movements (e.g., jumping, hind paw licking or shaking). Maximal cutoff time was set as 30 s regardless of the response in order to preclude skin damage.
Differences between the values of the latency period for the treated (experimental) and control groups of animals were considered significant at p ≤ 0.05.

[5] = Oxygen radical absorbance capacity (ORAC-FL) assay; settings: n.a. = inactive; i.t.s. = interferes with test system
Source text: We evaluated the primary antioxidant activity of synthesized 4-AHPs 5–9 in comparison with their non-fluorinated analogues 9a,b using three standard tests: ABTS, FRAP (ferric reducing antioxidant power) and ORAC (oxygen radical absorbance capacity) assays. The ABTS assay evaluates the binding of a model ABTS radical cation (ABTS^•+), which is realized by the mechanism of single electron transfer (SET) and/or hydrogen atom transfer (HAT). The FRAP assay measures the ability of compounds to reduce the ferric 2,4,6-tripyridyl-s-triazine complex [Fe(TPTZ)2]^3+ to [Fe(TPTZ)2]^2+, which occurs exclusively by the SET mechanism. The ORAC-FL assay measures the oxidative degradation of the fluorescent molecule (FL – fluorescein) after being mixed with a free peroxyl radical generator such as 2,2′-azobis-(2-methylpropionamidine) dihydrochloride (AAPH) in the presence of antioxidant (tested compound). The ORAC-FL test describes the antioxidants’ ability to yield the hydrogen atom and, consequently, it is a HAT-based assay. Trolox was used in all tests as a reference antioxidant: the antioxidant activity of the test compounds was referred to the activity of Trolox. The well-known antioxidant Edaravone was also used for comparison.
The ORAC assay was performed according to the known method, with minor variations and described by us recently.

[6] = tested on: Candida albicans RCPF Y 401/NCTC 885/653; experiment: Antifungal susceptibility testing, C. albicans; settings: NCTC885, read-out: MIC for fungi strains inhibition, C. albicans
Source text: (§2) The solvent was DMSO. […] In each test, a growth control and a sterility control were used.

[7] = tested on: Trichophyton rubrum RCPF F 1408; experiment: Antifungal susceptibility testing, T. rubrum; settings: Trichophyton rubrum, RCPFF1408, read-out: MIC for fungi strains inhibition, T. rubrum
Source text: as §2

[8] = tested on: Microsporum canis RCPF F 1643/1585; experiment: Antifungal susceptibility testing, M. canis; settings: Microsporum canis, RCPFF1643/1585, read-out: MIC for fungi strains inhibition, M. canis
Source text: as §2

[9] = tested on: Epidermophyton floccosum RCPF F 1659/17; experiment: Antifungal susceptibility testing, E. floccosum; settings: Epidermophyton floccosum, RCPFF1659/17, read-out: MIC for fungi strains inhibition, E. floccosum
Source text: as §2

[10] = target: T2, equine serum butyrylcholinesterase (BChE, EC 3.1.1.8) (Equus caballus, UniProt P81908); experiment: Inhibition of equine serum butyrylcholinesterase (Ellman assay); format: biochemical; settings: read-out: Inhibition % at 20 µM, Equine BChE
T2 construct: equine serum butyrylcholinesterase (BChE, EC 3.1.1.8); purchased Sigma-Aldrich (Saint Louis, MO, USA); host or cells: equine serum
Source text: as §1
Final concentrations of reactants were 0.33 mM DTNB, 0.02 unit/mL of AChE or BChE and 1 mM of substrate (ATCh or BTCh, respectively). Reagent blanks consisted of reaction mixtures without enzyme to assess non-enzymatic hydrolysis of substrates.
Test compounds were dissolved in DMSO. Reaction mixtures contained a final DMSO concentration of 2% (v/v). […] Substrate was then added and residual enzyme activity relative to an inhibitor-free control was measured using a Bio-Rad Benchmark Plus microplate reader (Marnes-la-Coquette, France).
Measurements were performed in a Bio-Rad Benchmark Plus microplate reader. Each experiment was performed in triplicate. Plots, linear regressions and values of IC50, were determined using Origin 6.1 for Windows, OriginLab (Northampton, MA, USA).

[11] = 2 h, read-out: Latent Period Prolongation, % 2 h
[12] = 1 h, read-out: Latent Period Prolongation, % 1 h

T1 sequence (P22303 32-617 isoform P22303-2 limits assumed): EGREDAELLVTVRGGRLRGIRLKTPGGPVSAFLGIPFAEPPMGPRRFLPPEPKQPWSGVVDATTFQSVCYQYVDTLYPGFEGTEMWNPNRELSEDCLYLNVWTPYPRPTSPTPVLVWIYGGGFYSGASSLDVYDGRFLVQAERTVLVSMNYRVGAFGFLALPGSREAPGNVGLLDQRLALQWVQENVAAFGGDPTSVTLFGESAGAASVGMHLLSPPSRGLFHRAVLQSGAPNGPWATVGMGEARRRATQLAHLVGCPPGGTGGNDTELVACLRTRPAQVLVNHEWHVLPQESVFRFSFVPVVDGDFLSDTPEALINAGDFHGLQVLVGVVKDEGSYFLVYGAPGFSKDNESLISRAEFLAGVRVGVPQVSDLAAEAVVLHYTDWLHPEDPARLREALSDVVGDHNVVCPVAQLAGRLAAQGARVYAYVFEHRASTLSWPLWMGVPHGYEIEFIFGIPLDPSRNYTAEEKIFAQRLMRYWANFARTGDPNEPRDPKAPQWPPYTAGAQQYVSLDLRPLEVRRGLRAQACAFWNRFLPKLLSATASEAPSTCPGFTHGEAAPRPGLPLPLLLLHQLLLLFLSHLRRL
T2 sequence (P81908 whole entry): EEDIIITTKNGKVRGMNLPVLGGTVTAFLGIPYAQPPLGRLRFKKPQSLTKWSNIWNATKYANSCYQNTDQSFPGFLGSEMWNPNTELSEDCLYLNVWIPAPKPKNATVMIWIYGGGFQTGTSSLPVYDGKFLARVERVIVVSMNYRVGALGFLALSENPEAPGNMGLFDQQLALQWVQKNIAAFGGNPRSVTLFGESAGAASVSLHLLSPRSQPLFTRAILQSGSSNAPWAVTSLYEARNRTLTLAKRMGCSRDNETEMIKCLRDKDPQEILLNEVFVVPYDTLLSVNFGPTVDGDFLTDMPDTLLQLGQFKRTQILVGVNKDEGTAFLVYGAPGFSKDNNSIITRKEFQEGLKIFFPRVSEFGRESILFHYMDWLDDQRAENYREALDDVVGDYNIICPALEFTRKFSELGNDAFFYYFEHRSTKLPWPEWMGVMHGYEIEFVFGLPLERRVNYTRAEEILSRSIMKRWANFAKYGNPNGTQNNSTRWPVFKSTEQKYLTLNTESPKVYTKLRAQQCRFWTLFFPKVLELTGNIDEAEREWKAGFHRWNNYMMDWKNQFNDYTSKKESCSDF

Row | SMILES | survival at 14 days [1] [%] | inhibition at 20 µM [2] [%] | MIC [3] [µg/mL] | IC50 [4] [µM] | ABTS•+-scavenging activity, TEAC (trolox equivalent antioxidant capacity) [4] | change in vivo at 15 mg/kg (Sprague-Dawley (SD) rats; [11]) [%] | ORAC-FL (TE, antioxidant activity in Trolox equivalents) [5] | MIC [6] [µg/mL] | MIC [7] [µg/mL] | MIC [8] [µg/mL] | MIC [9] [µg/mL] | inhibition at 20 µM [10] [%] | change in vivo at 15 mg/kg (Sprague-Dawley (SD) rats; [12]) [%] | analgesic activity in the hot plate test (Sprague-Dawley (SD) rats; SD rats, 1 and 2 h)
1 | COc1ccc(N/N=C2\C(=O)N(c3ccccc3)N=C2C(F)(F)F)cc1 [5g, (4Z)-4-(2-(4-Methoxyphenyl)hydrazinylidene)-2-phenyl-5-(trifluoromethyl)-2,4-dihydro-3H-pyrazol-3-one] | 100 | 12.3 ± 2.3 | 0.9 (≈ 2.48 µM) | 55.6 ± 2.4 | 0.35 ± 0.03 | 76.9 | 2.20 ± 0.36 | – | – | – | – | – | – | –
2 | O=C1/C(=N\Nc2ccc(F)cc2)C(C(F)(F)F)=NN1c1ccccc1 [5h, (4Z)-4-[2-(4-Fluorophenyl)hydrazinylidene]-2-phenyl-5-(trifluoromethyl)-2,4-dihydro-3H-pyrazol-3-one] | 100 | 7 ± 1.2 | 125 (≈ 357 µM) | – | 0.05 ± 0.004 | 67 | – | > 200 | > 200 | > 200 | > 200 | 3.2 ± 0.6 | 66 | –
3 | CCOC(=O)c1ccc(N/N=C2\C(=O)N(c3ccccc3)N=C2C(F)(F)F)cc1 [5l, (4Z)-4-[2-(4-Ethoxycarbonyl)hydrazinylidene]-2-phenyl-5-(trifluoromethyl)-2,4-dihydro-3H-pyrazol-3-one] | 100 | 16.7 ± 1.5 | 31.2 (≈ 77.2 µM) | – | – | 107 | i.t.s. | – | – | – | – | 3.2 ± 0.8 | 68.1 | –
4 | Cc1ccc(N/N=C2\C(=O)N(c3ccc(S(C)(=O)=O)cc3)N=C2C(F)(F)F)cc1 [5q, (4Z)-2-[4-(Methylsulfonyl)phenyl]-4-[2-(4-methylphenyl)hydrazinylidene]-5-(trifluoromethyl)-2,4-dihydro-3H-pyrazol-3-one] | 100 | 4.3 ± 0.8 | > 250 | – | 0.02 ± 0.001 | 110 | i.t.s. | – | – | – | – | – | 104 | –
5 | O=C1/C(=N\Nc2ccccc2Cl)C(C(F)(F)C(F)(F)F)=NN1c1ccccc1 [6c, (4Z)-4-[2-(2-Chlorophenyl)hydrazinylidene]-5-(pentafluoroethyl)-2-phenyl-2,4-dihydro-3H-pyrazol-3-one] | 100 | 3.3 ± 0.6 | > 250 | – | – | 51 | – | > 200 | 200 (≈ 480 µM) | > 200 | > 200 | 6.5 ± 1 | 75 | –
6 | O=C1/C(=N\Nc2c(Cl)cccc2Cl)C(C(F)(F)C(F)(F)F)=NN1c1ccccc1 [6e, (4Z)-4-[2-(2,6-Dichlorophenyl)hydrazinylidene]-5-(pentafluoroethyl)-2-phenyl-2,4-dihydro-3H-pyrazol-3-one] | 100 | 6 ± 1 | 62.5 (≈ 139 µM) | – | – | – | – | > 200 | > 200 | > 200 | 200 (≈ 443 µM) | 6.2 ± 1.2 | – | inactive
7 | CCOC(=O)c1ccc(N/N=C2\C(=O)N(c3ccccc3)N=C2C(F)(F)C(F)(F)F)cc1 [6g, (4Z)-4-[2-(4-Ethoxycarbonylphenyl)hydrazinylidene]-5-(pentafluoroethyl)-2-phenyl-2,4-dihydro-3H-pyrazol-3-one] | 100 | 6.2 ± 0.9 | 15.6 (≈ 34.3 µM) | – | – | 73 | – | > 200 | > 200 | > 200 | > 200 | 4.2 ± 0.8 | 67 | –
